Laboratory results as given in patent US6894045B2, “Tetrahydropurinones and derivatives thereof as corticotropin releasing factor receptor ligands” (Bristol-Myers Squibb Pharma Company, priority 2001, dated 2005).

Row | Structure (SMILES) | melting point [°C]
1 | CCCC(CCC)n1c(CC)nc2c1C(=O)N(C)C(CC)N2c1ccc(Cl)cc1Cl (stereo not shown) [Example 6, 3-(2,4-dichlorophenyl)-2,8-diethyl-7-(4-heptyl)-1-methyl-1,2,3,7-tetrahydro-6H-purin-6-one] | 116.5 to 117.5
2 | CCCC(CCC)n1c(CC)nc2c1C(=O)N(C)C(C)N2c1ccc(Cl)cc1Cl (stereo not shown) [Example 5, 3-(2,4-dichlorophenyl)-1,2-dimethyl-8-ethyl-7-(4-heptyl)-1,2,3,7-tetrahydro-6H-purin-6-one] | 144 to 145.5
3 | CCc1nc2c(n1C(CC)CC)C(=O)N(C)C(C)N2c1ccc(Cl)cc1Cl (stereo not shown) [Example 3, 3-(2,4-dichlorophenyl)-1,2-dimethyl-8-ethyl-7-(3-pentyl)-1,2,3,7-tetrahydro-6H-purin-6-one] | 135 to 136.5

Results, then the molecule that gave them:

Row | melting point [°C] | Structure (SMILES)
4 | 94 to 95 | CCCCC(CC)n1c(CC)nc2c1C(=O)N(C)CN2c1ccc(Cl)cc1Cl (stereo not shown) [Example 49, 3-(2,4-dichlorophenyl)-8-ethyl-7-(3-heptyl)-1-methyl-1,2,3,7-tetrahydro-6H-purin-6-one]
5 | 216 to 217 | CCc1nc2c(n1Cc1ccc(-c3ccccc3)cc1)C(=O)N(C)CN2c1ccc(Cl)cc1Cl [Example 21, 7-([1,1′-biphenyl]-4-ylmethyl)-3-(2,4-dichlorophenyl)-8-ethyl-1-methyl-1,2,3,7-tetrahydro-6H-purin-6-one]
6 | 117 to 118 | CCCC(CCC)n1c(CC)nc2c1C(=O)N(C)CN2c1ccc(Cl)cc1Cl [Example 2, 3-(2,4-dichlorophenyl)-8-ethyl-7-(4-heptyl)-1-methyl-1,2,3,7-tetrahydro-6H-purin-6-one]
7 | 132 to 133 | CCc1nc2c(n1C(CC)CC)C(=O)N(C)CN2c1ccc(Cl)cc1Cl [Example 1, 3-(2,4-dichlorophenyl)-8-ethyl-1-methyl-7-(3-pentyl)-1,2,3,7-tetrahydro-6H-purin-6-one]
